Laboratory results as given in patent US7354904B2, “Bacteriocin inducer peptides” (priority 2005, dated 2008).

Key:
[1] = Isoelectric point by isoelectrofocusing; format: physicochemical
From the text: (§1) FIGS. 1A and 1B are photographs showing the direct detection of signal peptide and bacteriocin OR-7 after SDS-PAGE (A) and isoelectrofocusing (B). […] In FIG. 1A Lane 1-Molecular Mass Markers LMW Range 2,100-12,500 (Amersham Pharmacia Biotech): 2,100; 5,780; 8,400; 12,500 Da. […] Lane 3 contained pI standards (Protein Test Mixture, I Marker Proteins, Serva): 10.0, 9.2, 8.1, 6.9, 5.5, 4.3.
(§2) FIGS. 2A and 2B are photographs showing direct detection of signal peptide and bacteriocin 50-52 after SDS-PAGE (A) and isoelectrofocusing (B). […] Lane 3 contained pI standards (Protein Test Mixture, I Marker Proteins, Serva): 10.0, 8.1, 7.9, 6.4, 5.5, 4.3, 4.1, and 3.8.
(§3) FIGS. 3A and 3B are photographs showing the direct detection of signal peptide and bacteriocin 760 after SDS-PAGE(A) and isoelectrofocusing (B). […] Lane 3 contained pI standards (Protein Test Mixture, I Marker Proteins, Serva): 10.0, 8.1, 7.9, 6.4, 5.5, 4.3, 4.1, and 3.8.
At the end of 14 hours the supernatant from the cultures was placed into 500 ml centrifuge flasks with about one milliliter of regenerated Sepharose SP Fast Flow (v/v 500: 1). This was incubated for approximately 1 hour at room temperature with stirring. The suspension was then washed with about 100 ml of a 0.2 M TRIS-HCl buffer pH approximately 6.4. The bacteriocins were eluted by centrifugation with about 100 ml of approximately 0.2 M K2HPO4, pH of about 5.8 at about 7,000×g for approximately 10 minutes. Antagonistic activity of the bacteriocin fractions against C. jejuni and S. enteritidis was assessed using a Spot Test as described above. The level of purity of the bacteriocin fractions was determined by SDS-PAGE. The isoelectric points of the fractions were determined by isoelectric focusing. Concentrations of protein for all bacteriocin fractions were determined at 215 nm using a spectrophotometer.

Campylobacter jejuni = test: Direct detection of antimicrobial activity: SDS-PAGE / isoelectrofocusing gel overlaid with Campylobacter jejuni; format: cell-based
From the text: as §1, §2, §3

C. jejuni = test: Spot Test, antagonistic activity of isolated signal peptides; format: cell-based, Campylobacter jejuni; conditions: isolated signal peptide
Protocol: (§4) The antagonistic activity of the bacteriocins produced when using the signal peptide and an inducer strain of bacteria against C. jejuni and S. enteritidis was assessed using a Spot Test. The steps included taking various concentrations of pure preparation (μg/ml) of the bacteriocin in approximately 10 microliters of volume plated onto blood-supplemented Campylobacter agar or Nutrient agar (MPA or Meta Peptone Agar) previously seeded with cells of target bacteria. Plates containing cultures of C. jejuni were grown at about 42° C., under microaerobic conditions. Plates containing S. enteritidis were grown at about 37° C. under aerobic conditions. Activity of the bacteriocin was expressed in arbitrary units (AU) per one milliliter of the preparation at which a visible zone of inhibition of the growth of culture appears (Henderson et al., Archives of Biochemistry and Biophysics, Volume 295, 5-12, 1992; herein incorporated by reference). Specific activity can also expressed as arbitrary units per milligram of pure bacteriocin.
(§5) Its activity was about 200 AU/ml and its molecular weight was about 2.5 kDa, as determined by SDS-PAGE electrophoresis. The isoelectric point (pI) was about 7.9 (FIGS. 1A and 1B).
(§6) Its molecular weight was about 3.1 kDa as measured by SDS-PAGE and the isoelectric point (pI) was about 8.1 (FIGS. 2A and 2B).
(§7) Its molecular weight was about 2.1 kDa as determined by SDS-PAGE electrophoresis and its isoelectric point was about 8.9 (FIGS. 3A and 3B).

S. enteritidis = test: as above; format: cell-based; conditions: isolated signal peptide
Protocol: as §4, §5, §6, §7

[2] = system: Lactobacillus salivarius PVD-32; test: Influence of signal peptide on bacteriocin OR-7 production, flask culture (fraction protein at 215 nm, activity by Spot Test against C. jejuni and S. enteritidis); format: cell-based; conditions: for Activity / Protein Concentration / Protein increase vs. Control / Specific Activity / mg protein/liter: 10% B-B
[3] = system: Lactobacillus salivarius PVD-32; test: Bacteriocin OR-7 production with signal peptide under scaled up conditions (bioreactor); format: cell-based; conditions: V-61 reactor, 10% Brucella Broth, PVD-32, LWP252, peptide 0.2 mg, pH 6.9, 37° C., 14 hours
[4] = system: Enterococcus faecium LWP 50-52; test: Influence of signal peptide on bacteriocin 50-52 production, flask culture (fraction protein at 215 nm, activity by spot-test against C. jejuni and S. enteritidis); format: cell-based
[5] = system: Streptococcus cricetus LWP 760; test: Influence of signal peptide on bacteriocin 760 production, flask culture (fraction protein at 215 nm, activity by Spot Test against C. jejuni and S. enteritidis); format: cell-based
[6] = producer PVD32, no inducer, peptide 0.1 mg
[7] = producer PVD-32 + inducer LWP-252, peptide 0.001 mg
[8] = producer PVD-32 + inducer LWP-252, peptide 0.01 mg
[9] = producer PVD-32 + inducer LWP-252, peptide 0.1 mg
[10] = producer PVD-32, no inducer, peptide 0.001 mg
[11] = producer PVD-32, no inducer, peptide 0.01 mg
[12] = LWP 50-52 + LWP 320, PVD-32 peptide 0.1 mg/ml
[13] = LWP 760 + LWP320, 0.1 mg PVD 32 peptide

With “KTYYGTNGVHCTKNSLWGKVRLKNMKYDQNTTYMGRLQDILLGWATGAFGKTH (listed as Lactobacillus salivarius) [bacteriocin OR-7, bacteriocin produced by Lactobacillus salivarius PVD-32]” the “isoelectric point (pI)” value [1] was “about 8.4” and the “antimicrobial activity of band (zone of growth inhibition)” value (Campylobacter jejuni) was “corresponds to the antimicrobial activity”.

With “MVTKSLVLAWVVALLACGMVKGLT (listed as Lactobacillus salivarius) [PVD-32 Signal Peptide, signal peptide isolated from Lactobacillus salivarius PVD-32, stimulates bacteriocin OR-7 production]” the Activity (C. jejuni) was “about 200 AU/ml”, the antagonistic activity (C. jejuni) was “weak antagonistic activity” and the Activity (S. enteritidis) was “about 200 AU/ml”. The antagonistic activity (S. enteritidis) was “weak antagonistic activity”, the “isoelectric point (pI)” value [1] was “about 7.9” and the Activity [2, 6] was 102,400 AU/ml. The Protein Concentration [2, 6] was 0.18 Mg/ml, the “Protein increase vs. Control” value [2, 6] was 0.9 and the “Specific Activity” value [2, 6] was 568,888 AU/mg. For the same molecule, the mg protein/liter [2, 6] was 59.4 mg protein/liter, the Activity [2, 7] was 409,600 AU/ml and the Protein Concentration [2, 7] was 0.22 Mg/ml. For the same molecule, the “Protein increase vs. Control” value [2, 7] was 1.1, the “Specific Activity” value [2, 7] was 1,861,818 AU/mg and the mg protein/liter [2, 7] was 72.6 mg protein/liter. The Activity [2, 8] was 1,638,400 AU/ml, the Protein Concentration [2, 8] was 0.65 Mg/ml and the “Protein increase vs. Control” value [2, 8] was 3.25. The “Specific Activity” value [2, 8] was 2,520,615 AU/mg, the mg protein/liter [2, 8] was 214.5 mg protein/liter and the mg protein/liter ([2]; producer PVD-32 + inducer LWP-252, peptide 0.01 mg, listed as signal peptide from PVD-32) was “about 214.5 mg protein/liter”. For the same molecule, the Activity [2, 9] was 409,600 AU/ml, the Protein Concentration [2, 9] was 0.22 Mg/ml and the “Protein increase vs. Control” value [2, 9] was 1.1. For the same molecule, the “Specific Activity” value [2, 9] was 1,861,818 AU/mg, the mg protein/liter [2, 9] was 72.6 mg protein/liter and the Activity [2, 10] was 204,800 AU/ml. For the same molecule, the Protein Concentration [2, 10] was 0.2 Mg/ml, the “Protein increase vs. Control” value [2, 10] was 1 and the “Specific Activity” value [2, 10] was 1,024,000 AU/mg. For the same molecule, the mg protein/liter [2, 10] was 66 mg protein/liter, the Activity [2, 11] was 204,800 AU/ml and the Protein Concentration [2, 11] was 0.2 Mg/ml. For the same molecule, the “Protein increase vs. Control” value [2, 11] was 1, the “Specific Activity” value [2, 11] was 1,024,000 AU/mg and the mg protein/liter [2, 11] was 66 mg protein/liter. For the same molecule, the “production of bacteriocin OR-7 per liter of culture fluid” value ([2]; simultaneous culture of PVD-32 and LWP-252 with signal peptide (flask and bioreactor)) was 214-225 milligrams, the Activity [3] was 3,276,800 AU/ml and the “Amount of Protein produced in One liter” value [3] was 225 mg. The “Concentration of Protein” value [3] was 1.5 mg/mL, the “Increase in amount of protein vs. control” value [3] was 3 and the “Specific Activity” value [3] was 2,184,533 AU/mg. The Activity [4, 12] was 819,200 AU/ml, the “Protein Concentration” value [4, 12] was 0.25 mg/mL and the “Protein increase vs. Control” value [4, 12] was 1. For the same molecule, the “Specific Activity” value [4, 12] was 3,276,800 AU/mg, the mg protein/liter [4, 12] was 82.5 mg protein/liter and the “yield of bacteriocin 50-52 versus the control” value ([4]; signal peptide of another strain added to LWP 50-52 + LWP 320) was “did not increase”. For the same molecule, the Activity [5, 13] was 1,638,840 AU/ml, the “Increase in amount of protein vs. control” value [5, 13] was 1 and the “Protein Concentration” value [5, 13] was 0.30 mg/mL. The “Protein Produced from 1 liter Culture Fluid” value [5, 13] was 99 mg, the “Specific Activity” value [5, 13] was 5,462,666 Au/mg and the “yield of bacteriocin 760 versus control” value ([5]; signal peptide of another strain added to LWP 760 + LWP 320) was “did not increase”.

For “TTKNYGNGVCNSVNWCQCGNVWASCNLATGCAAWLCKLA (listed as Enterococcus faecium) [bacteriocin 50-52, bacteriocin produced by Enterococcus faecium LWP 50-52]”, the “isoelectric point (pI)” value [1] was “about 8.4” and the “antimicrobial activity of band (zone of growth inhibition)” value (Campylobacter jejuni) was “corresponds to the antimicrobial activity”.

B1: NRWYCNSAAGGVGGAAVCGLAGYVGEAKENIAGEVRKGWGMAGGFTHNKACKSFPGSGWASG (protein, listed as Streptococcus cricetus)
chain: NRWYCNSAAGGVGGAAVCGLAGYVGEAKENIAGEVRKGWGMAGGFTHNKACKSFPGSGWASG
notes: bacteriocin produced by Streptococcus cricetus LWP 760
With B1 the “isoelectric point (pI)” value [1] was “about 9.5” and the “antimicrobial activity of band (zone of growth inhibition)” value (Campylobacter jejuni) was “corresponds to the antimicrobial activity”.
